Starred links: 1 amine or outer side, 2 acyl side, 3 side chain; linkers in the order of their positions; H or OH if unused. Non-standard residues stand in square brackets, D forms with d. Residues, ends and D or L forms follow the SMILES beside them. Groups on a side chain read outwards from the residue. *: point of attachment. X5 = CCCCCCCCCCCCCCCC(=O)N[C@@H](CCC(=O)N[C@@H](CCC(=O)N[C@@H](CCC(=O)NCCCOCCOCCOCCCNC(=O)CCC(=O)NCCCOCCOCCOCCCNC(=O)CCC(=O)NCCCOCCOCCOCCCNC(=O)CCC(=O)NCCCOCCOCCOCCCN*)C(=O)O)C(=O)O)C(=O)O; X1 = CCCCCCCCCCCCCCCC(=O)N[C@@H](CCC(=O)N[C@@H](CCC(=O)N[C@@H](CCC(=O)NCCCOCCOCCOCCCNC(=O)CCC(=O)NCCCOCCOCCOCCCNC(=O)CCC(=O)NCCCOCCOCCOCCCN*)C(=O)O)C(=O)O)C(=O)O; Suc = O=C(CCC(=O)[*:2])[*:1]; αMeK = C[C@](N)(CCCCN)C(=O)O; Aib = CC(C)(N)C(=O)O
Target: T1, RXFP1 (Homo sapiens, UniProt Q9HBX9)
T1 construct: OVCAR5 cells expressing endogenous RXFP1; endogenous in cells; host or cells: OVCAR5
T1 sequence (Q9HBX9 1-757): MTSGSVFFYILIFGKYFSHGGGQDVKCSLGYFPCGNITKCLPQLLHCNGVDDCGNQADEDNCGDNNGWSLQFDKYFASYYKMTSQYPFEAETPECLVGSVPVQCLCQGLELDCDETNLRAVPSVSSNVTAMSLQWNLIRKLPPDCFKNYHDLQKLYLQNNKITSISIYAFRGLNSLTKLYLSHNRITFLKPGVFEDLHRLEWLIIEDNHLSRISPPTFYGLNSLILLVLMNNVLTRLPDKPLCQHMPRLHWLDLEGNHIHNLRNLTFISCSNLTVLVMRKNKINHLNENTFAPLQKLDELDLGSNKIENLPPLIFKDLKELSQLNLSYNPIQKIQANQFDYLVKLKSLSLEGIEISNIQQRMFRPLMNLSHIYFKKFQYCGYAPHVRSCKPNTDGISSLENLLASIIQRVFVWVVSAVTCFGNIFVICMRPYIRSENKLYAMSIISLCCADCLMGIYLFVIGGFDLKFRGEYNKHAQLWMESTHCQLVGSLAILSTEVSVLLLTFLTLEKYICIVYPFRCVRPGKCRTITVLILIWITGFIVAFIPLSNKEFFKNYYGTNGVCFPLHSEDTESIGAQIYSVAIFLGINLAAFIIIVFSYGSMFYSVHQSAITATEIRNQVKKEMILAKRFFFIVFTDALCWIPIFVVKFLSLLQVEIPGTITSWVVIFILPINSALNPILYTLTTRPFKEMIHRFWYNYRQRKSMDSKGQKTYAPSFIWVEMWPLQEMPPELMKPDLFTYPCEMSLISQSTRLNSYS
Experiment: OVCAR5 cAMP assay (HTRF)
Assay type: cell-based
Conditions: for EC50: OVCAR 5 cells expressing endogenous RXFP1, cAMP readout; for Emax: OVCAR 5 cells, maximal cAMP relative to H2-relaxin
Description: OVCAR5 cells expressing endogenous RXFP1 were used to test RXP1 agonist properties of peptides of the invention, and in particular of the peptides of sequence SEQ ID NO: 1-97.
Since RXFP1 is a Gs coupled GPCR, cAMP was used as readout of RXFP1 activation.
Isobutyl Methyl Xanthine (IBMX) was used to inhibit phosphodiesterase activity facilitating cAMP measurements. HTRF (Homogenous Time Resolved Fluorescence) technology was used to detect cAMP due to its great sensitivity.
In summary, OVCAR5 were grown in regular medium (RPMI) containing 10% fetal calf serum (FCS) and 1% antibiotics (penicillin/streptomycin).
Before the experiments, cells were detached with accutase and incubated for 40 minutes at 37° C. with 1 mM (3-isobutyl-1-methylxanthine) IBMX.
Cells were then distributed in 384 black well plates containing increasing concentrations of the different peptides in a fix volume of medium (without FCS).
After an incubation of 30 min at 37° C. in an humid incubator in 5% CO2, the reaction was stopped by adding a fixed volume of a solution containing a lysis buffer and cAMP-D2 (cAMP labeled with the dye d2) and the anti cAMP antibody linked to Europium and used for cAMP detection.
Readout of the experiment were performed on a fluorimeter allowing HTRF measurement. Activation curves were generated by plotting the intracellular value of cAMP versus log 10 of the compound concentration.
The 50% activation concentration (EC50) was calculated by nonlinear regression using the sigmoidal dose-response (variable slope) equation with Prism 5 software.
Emax % was determined as the maximal intracellular value of cAMP for test compound (upper limit of cAMP vs concentration curve) divided by the maximal intracellular value of cAMP for H2-relaxin determined in the same test occasion multiplied by 100. Emax %=100×[cAMPtest cpd]/[cAMPH2-Rlx]

Row | EC50 [nM] | Emax [%] | SMILES
1 | 0.18 | 99 | CCCCCCCCCCCCCCCC(=O)N[C@@H](CCC(=O)N[C@@H](CCC(=O)N[C@@H](CCC(=O)NCCCOCCOCCOCCCNC(=O)CCC(=O)NCCCOCCOCCOCCCNC(=O)CCC(=O)NCCCOCCOCCOCCCNC(=O)CCC(=O)NCCCOCCOCCOCCCNC(=O)CCC(=O)NCCCC[C@H](NC(=O)CNC(=O)[C@H](CCC(=O)O)NC(=O)C(C)(C)NC(=O)C(C)(C)NC(=O)[C@@H](NC(=O)[C@H](CCCCNC(C)=O)NC(=O)[C@H](C)NC(=O)[C@H](CCCNC(=N)N)NC(=O)[C@@H](NC(=O)[C@H](CCCCN)NC(=O)[C@H](CCC(=O)O)NC(=O)[C@H](CCCNC(=N)N)NC(=O)CNC(=O)[C@H](CCC(=O)O)NC(=O)[C@H](CC(C)C)NC(C)=O)C(C)C)[C@@H](C)CC)C(=O)N[C@@H](CO)C(=O)N[C@H](C(=O)N[C@@H](Cc1ccccc1)C(=O)N[C@@H](CO)C(=O)N[C@@](C)(CCCCN)C(=O)N[C@@H](CCCNC(=N)N)C(=O)N[C@@H](C)C(=O)N[C@@H](CCCCNC(C)=O)C(N)=O)[C@@H](C)O)C(=O)O)C(=O)O)C(=O)O [compound 78] (Ac-LEGREKVRAK(Ac)I[Aib][Aib]EGK([Suc-X5])STFS[αMeK]RAK(Ac)-NH2)
2 | 0.45 | 96 | CCCCCCCCCCCCCCCC(=O)N[C@@H](CCC(=O)N[C@@H](CCC(=O)N[C@@H](CCC(=O)NCCCOCCOCCOCCCNC(=O)CCC(=O)NCCCOCCOCCOCCCNC(=O)CCC(=O)NCCCOCCOCCOCCCNC(=O)CCC(=O)NCCCC[C@H](NC(=O)CNC(=O)[C@H](CCC(=O)O)NC(=O)C(C)(C)NC(=O)C(C)(C)NC(=O)[C@@H](NC(=O)[C@H](CCC(N)=O)NC(=O)[C@H](C)NC(=O)[C@H](CCCNC(=N)N)NC(=O)[C@@H](NC(=O)[C@H](CCCCN)NC(=O)[C@H](CCC(=O)O)NC(=O)[C@H](CCCNC(=N)N)NC(=O)CNC(=O)[C@H](CCC(=O)O)NC(=O)[C@H](CC(C)C)NC(C)=O)C(C)C)[C@@H](C)CC)C(=O)N[C@@H](CO)C(=O)N[C@H](C(=O)N[C@@H](Cc1ccccc1)C(=O)N[C@@H](CO)C(=O)N[C@@](C)(CCCCN)C(=O)N[C@@H](CCCNC(=N)N)C(=O)N[C@@H](C)C(=O)N[C@@H](CCCCNC(C)=O)C(N)=O)[C@@H](C)O)C(=O)O)C(=O)O)C(=O)O [compound 48] (Ac-LEGREKVRAQI[Aib][Aib]EGK([Suc-X1])STFS[αMeK]RAK(Ac)-NH2)
3 | 0.45 | 95 | CCCCCCCCCCCCCCCC(=O)N[C@@H](CCC(=O)N[C@@H](CCC(=O)N[C@@H](CCC(=O)NCCCOCCOCCOCCCNC(=O)CCC(=O)NCCCOCCOCCOCCCNC(=O)CCC(=O)NCCCOCCOCCOCCCNC(=O)CCC(=O)NCCCC[C@H](NC(=O)CNC(=O)[C@H](CCC(=O)O)NC(=O)C(C)(C)NC(=O)C(C)(C)NC(=O)[C@@H](NC(=O)[C@H](CCCCNC(C)=O)NC(=O)[C@H](C)NC(=O)[C@H](CCCNC(=N)N)NC(=O)[C@@H](NC(=O)[C@H](CCCCN)NC(=O)[C@H](CCC(=O)O)NC(=O)[C@H](CCCNC(=N)N)NC(=O)CNC(=O)[C@H](CCC(=O)O)NC(=O)[C@H](CC(C)C)NC(C)=O)C(C)C)[C@@H](C)CC)C(=O)N[C@@H](CO)C(=O)N[C@@H](CCCCN)C(=O)N[C@@H](Cc1ccccc1)C(=O)N[C@@H](CO)C(=O)NC(C)(C)C(=O)N[C@@H](CCCNC(=N)N)C(=O)N[C@@H](CCCCN)C(=O)N[C@@H](CCCCNC(C)=O)C(N)=O)C(=O)O)C(=O)O)C(=O)O [compound 79] (Ac-LEGREKVRAK(Ac)I[Aib][Aib]EGK([Suc-X1])SKFS[Aib]RKK(Ac)-NH2)
